Tests used:
Mixed Bacteria [1] = assay: Speed of Kill test in TSB; type: cell-based; details: for Minimum Effective Concentration ALONE: 5-log reduction criteria, no end point measured, value is 2× the highest level tested (Lazonby)
Source text: (§1) One measure of synergism is the industrially accepted method described by Kull, F. C.; Eisman, P. C.; Sylwestrowicz, H. D. and Mayer, R. L., in Applied Microbiology 9:538–541 (1961), using the ratio determined by the formula: Qa/QA+Qb/QB=Synergy Index (“SI”) wherein: • QA=concentration of compound A (first component) in ppm, acting alone, which produced an end point (MIC of Compound A). • Qa=concentration of compound A in ppm, in the mixture, which produced an end point. • QB=concentration of compound B (second component) in ppm, acting alone, which produced an end point (MIC of Compound B). • Qb=concentration of compound B in ppm, in the mixture, which produced an end point.
(§2) When the sum of Qa/QA and Qb/QB is greater than one, antagonism is indicated. […] The lower the SI, the greater the synergy shown by that particular mixture. The minimum inhibitory concentration (MIC) of a microbicide is the lowest concentration tested under a specific set of conditions that prevents the growth of added microorganisms.
To evaluate “Speed of Kill” an aliquot of 30 g of pH 8 TSB was dispensed in sterile 2 oz (60 mL) jars. Biocides stock solution was added into each jar to achieve the final concentration. The test samples were inoculated with 0.3 ml of mixed bacterial inoculum (resulting in 10^6/ml bacteria per ml of test solution). Samples were then placed in a shaker water bath at 30° C. Bacterial growth was monitored via the microtiter MPN method using the BECKMAN AUTOMATIC 2000 Workstation after 30 min, 1, 4, 24, 48, 72 hours and again 6–7 days contact time. The microtiter plates were incubated at 30° C. for 2 days.
(§3) In each test, First Component (A) was MI and the Second Component (B) was DBNPA. “NG” means that no growth was observed.

Mixed Bacteria [2] = assay: Minimum Inhibitory Concentration (MIC) synergy test, microtiter plate; type: cell-based; details: after 24 hours at 30° C.
Source text: as §1, §2
Synergy tests were conducted using standard microtiter plate assays with media designed for optimal growth of the test microorganism. […] High resolution MICs were determined by adding varying amounts of microbicide to one column of a microtitre plate and doing subsequent ten-fold dilutions using an automated liquid handling system to obtain a series of endpoints ranging from 2 ppm to 10,000 ppm active ingredient. The combinations of the present invention were tested against three bacteria, Pseudomonas aeruginosa (P. aeruginosa —ATCC #15442), Enterobacter aerogenes (ATCC #13048), and Kiebsiella pneumoniae (ATCC #13883). The bacteria were used at a concentration of about 10^8 bacteria per mL. These microorganisms are representative of natural contaminants in many consumer and industrial applications. The plates were visually evaluated for microbial growth (turbidity) to determine the MIC after various incubation times at 30° C.
as §3

Structure (SMILES): N#CC(Br)(Br)C(N)=O [DBNPA, 2,2-dibromo-3-nitrilopropionamide]
- Minimum Effective Concentration ALONE (Mixed Bacteria [1]; 24 hr): 46 ppm AI
- Minimum Effective Concentration ALONE (Mixed Bacteria [1]; 48 hr): 46 ppm AI
- Minimum Effective Concentration ALONE (Mixed Bacteria [1]; 72 hr): 46 ppm AI
- CFU/ml Bacteria Log Reduction vs Control (Mixed Bacteria [1]; DBNPA 1 ppm AI alone, 30 min @ 30° C.): 0.6 log
- CFU/ml Bacteria Log Reduction vs Control (Mixed Bacteria [1]; DBNPA 1 ppm AI alone, 1 hr @ 30° C.): −0.6 log
- CFU/ml Bacteria Log Reduction vs Control (Mixed Bacteria [1]; DBNPA 1 ppm AI alone, 4 hr @ 30° C.): −1.0 log
- CFU/ml Bacteria Log Reduction vs Control (Mixed Bacteria [1]; DBNPA 1 ppm AI alone, 24 hr @ 30° C.): −2.6 log
- CFU/ml Bacteria Log Reduction vs Control (Mixed Bacteria [1]; DBNPA 2 ppm AI alone, 30 min @ 30° C.): −0.1 log
- CFU/ml Bacteria Log Reduction vs Control (Mixed Bacteria [1]; DBNPA 2 ppm AI alone, 1 hr @ 30° C.): −0.3 log
- CFU/ml Bacteria Log Reduction vs Control (Mixed Bacteria [1]; DBNPA 2 ppm AI alone, 4 hr @ 30° C.): −0.8 log
- CFU/ml Bacteria Log Reduction vs Control (Mixed Bacteria [1]; DBNPA 2 ppm AI alone, 24 hr @ 30° C.): −1.4 log
- CFU/ml Bacteria Log Reduction vs Control (Mixed Bacteria [1]; DBNPA 5 ppm AI alone, 30 min @ 30° C.): 0.4 log
- CFU/ml Bacteria Log Reduction vs Control (Mixed Bacteria [1]; DBNPA 5 ppm AI alone, 1 hr @ 30° C.): −0.3 log
- CFU/ml Bacteria Log Reduction vs Control (Mixed Bacteria [1]; DBNPA 5 ppm AI alone, 4 hr @ 30° C.): −0.8 log
- CFU/ml Bacteria Log Reduction vs Control (Mixed Bacteria [1]; DBNPA 5 ppm AI alone, 24 hr @ 30° C.): −1.6 log
- CFU/ml Bacteria Log Reduction vs Control (Mixed Bacteria [1]; DBNPA 9 ppm AI alone, 30 min @ 30° C.): 0.4 log
- CFU/ml Bacteria Log Reduction vs Control (Mixed Bacteria [1]; DBNPA 9 ppm AI alone, 1 hr @ 30° C.): 0.0 log
- CFU/ml Bacteria Log Reduction vs Control (Mixed Bacteria [1]; DBNPA 9 ppm AI alone, 4 hr @ 30° C.): −1.0 log
- CFU/ml Bacteria Log Reduction vs Control (Mixed Bacteria [1]; DBNPA 9 ppm AI alone, 24 hr @ 30° C.): −2.0 log
- CFU/ml Bacteria Log Reduction vs Control (Mixed Bacteria [1]; DBNPA 23 ppm AI alone, 30 min @ 30° C.): 0.4 log
- CFU/ml Bacteria Log Reduction vs Control (Mixed Bacteria [1]; DBNPA 23 ppm AI alone, 1 hr @ 30° C.): 0.2 log
- CFU/ml Bacteria Log Reduction vs Control (Mixed Bacteria [1]; DBNPA 23 ppm AI alone, 4 hr @ 30° C.): −1.0 log
- CFU/ml Bacteria Log Reduction vs Control (Mixed Bacteria [1]; DBNPA 23 ppm AI alone, 24 hr @ 30° C.): −1.4 log
- MIC Values ALONE (Mixed Bacteria [2]; 1/10 TSB): 45 ppm AI
- MIC Values ALONE (Mixed Bacteria [2]; M9G + 0.1% yeast extract): 45 ppm AI

Structure (SMILES): Cn1sccc1=O [MI, 2-methyl-4-isothiazolin-3-one]
- Minimum Effective Concentration ALONE (Mixed Bacteria [1]; 24 hr): 300 ppm AI
- Minimum Effective Concentration ALONE (Mixed Bacteria [1]; 48 hr): 300 ppm AI
- Minimum Effective Concentration ALONE (Mixed Bacteria [1]; 72 hr): 300 ppm AI
- CFU/ml Bacteria Log Reduction vs Control (Mixed Bacteria [1]; MI 25 ppm AI alone, 30 min @ 30° C.): −0.3 log
- CFU/ml Bacteria Log Reduction vs Control (Mixed Bacteria [1]; MI 25 ppm AI alone, 1 hr @ 30° C.): 0.0 log
- CFU/ml Bacteria Log Reduction vs Control (Mixed Bacteria [1]; MI 25 ppm AI alone, 4 hr @ 30° C.): 0.2 log
- CFU/ml Bacteria Log Reduction vs Control (Mixed Bacteria [1]; MI 25 ppm AI alone, 24 hr @ 30° C.): −1.3 log
- CFU/ml Bacteria Log Reduction vs Control (Mixed Bacteria [1]; MI 25 ppm AI alone, 48 hr @ 30° C.): −2.0 log
- CFU/ml Bacteria Log Reduction vs Control (Mixed Bacteria [1]; MI 50 ppm AI alone, 30 min @ 30° C.): 0.4 log
- CFU/ml Bacteria Log Reduction vs Control (Mixed Bacteria [1]; MI 50 ppm AI alone, 1 hr @ 30° C.): 0.2 log
- CFU/ml Bacteria Log Reduction vs Control (Mixed Bacteria [1]; MI 50 ppm AI alone, 4 hr @ 30° C.): 0.4 log
- CFU/ml Bacteria Log Reduction vs Control (Mixed Bacteria [1]; MI 50 ppm AI alone, 24 hr @ 30° C.): −0.6 log
- CFU/ml Bacteria Log Reduction vs Control (Mixed Bacteria [1]; MI 50 ppm AI alone, 48 hr @ 30° C.): −1.6 log
- CFU/ml Bacteria Log Reduction vs Control (Mixed Bacteria [1]; MI 75 ppm AI alone, 30 min @ 30° C.): 0.2 log
- CFU/ml Bacteria Log Reduction vs Control (Mixed Bacteria [1]; MI 75 ppm AI alone, 1 hr @ 30° C.): 0.2 log
- CFU/ml Bacteria Log Reduction vs Control (Mixed Bacteria [1]; MI 75 ppm AI alone, 4 hr @ 30° C.): −0.3 log
- CFU/ml Bacteria Log Reduction vs Control (Mixed Bacteria [1]; MI 75 ppm AI alone, 24 hr @ 30° C.): 0.2 log
- CFU/ml Bacteria Log Reduction vs Control (Mixed Bacteria [1]; MI 75 ppm AI alone, 48 hr @ 30° C.): −2.0 log
- CFU/ml Bacteria Log Reduction vs Control (Mixed Bacteria [1]; MI 100 ppm AI alone, 168 @ 30° C.): −2.8 log
- CFU/ml Bacteria Log Reduction vs Control (Mixed Bacteria [1]; MI 100 ppm AI alone, 30 min @ 30° C.): 0.4 log
- CFU/ml Bacteria Log Reduction vs Control (Mixed Bacteria [1]; MI 100 ppm AI alone, 1 hr @ 30° C.): 0.6 log
- CFU/ml Bacteria Log Reduction vs Control (Mixed Bacteria [1]; MI 100 ppm AI alone, 4 hr @ 30° C.): 0.2 log
- CFU/ml Bacteria Log Reduction vs Control (Mixed Bacteria [1]; MI 100 ppm AI alone, 24 hr @ 30° C.): 0.8 log
- CFU/ml Bacteria Log Reduction vs Control (Mixed Bacteria [1]; MI 100 ppm AI alone, 48 hr @ 30° C.): 1.7 log
- CFU/ml Bacteria Log Reduction vs Control (Mixed Bacteria [1]; MI 100 ppm AI alone, 72 hr @ 30° C.): 0.0 log
- CFU/ml Bacteria Log Reduction vs Control (Mixed Bacteria [1]; MI 150 ppm AI alone, 168 @ 30° C.): −2.0 log
- CFU/ml Bacteria Log Reduction vs Control (Mixed Bacteria [1]; MI 150 ppm AI alone, 30 min @ 30° C.): 0.6 log
- CFU/ml Bacteria Log Reduction vs Control (Mixed Bacteria [1]; MI 150 ppm AI alone, 1 hr @ 30° C.): 0.2 log
- CFU/ml Bacteria Log Reduction vs Control (Mixed Bacteria [1]; MI 150 ppm AI alone, 4 hr @ 30° C.): 0.0 log
- CFU/ml Bacteria Log Reduction vs Control (Mixed Bacteria [1]; MI 150 ppm AI alone, 24 hr @ 30° C.): −0.2 log
- CFU/ml Bacteria Log Reduction vs Control (Mixed Bacteria [1]; MI 150 ppm AI alone, 48 hr @ 30° C.): 1.7 log
- CFU/ml Bacteria Log Reduction vs Control (Mixed Bacteria [1]; MI 150 ppm AI alone, 72 hr @ 30° C.): 0.4 log
- MIC Values ALONE (Mixed Bacteria [2]; 1/10 TSB): 38 ppm AI
- MIC Values ALONE (Mixed Bacteria [2]; M9G + 0.1% yeast extract): 38 ppm AI

Reference: patent US7208511B2, “Microbicidal composition” (Rohm and Haas Company, priority 2003, dated 2007)
